# Active and inactive are the calls of the source. The rule behind the calls is not given here.
# Columns and labels:
# [1] = tested on: JeKo-1; test: Antitumor activity against human JeKo-1 cells xenografted in female CB17 SCID mouse assessed as tumor growth inhibition at 50 mg/kg BID, po measured every 2 days for 24 days relative to control; assay type: functional; conditions: JeKo-1, 576 h, time 24 day, read-out: TGI
# [2] = tested on: CWR22R; test: Antiproliferative activity against human 22Rv1 cells incubated for 120 hrs by Cell-titer Glo luminescent assay; conditions: 22Rv1, 120 h
# [3] = tested on: LoVo; test: Antitumor activity against human LoVo cells xenografted in female Balb/c nude mouse assessed as tumor growth inhibition at 50 mg/kg QD, po measured every 3 days for 25 days relative to control; assay type: functional; conditions: 600 h, time 25 day, read-out: TGI
# [4] = tested on: LoVo; test: Induction of apoptosis in human LoVo cells assessed as late apoptotic cells at 3 uM incubated for 24 hrs by Annexin-V-FITC-PI staining based flow cytometric analysis (reference value: 13.2 %); assay type: functional
# [5] = tested on: LoVo; test: Induction of apoptosis in human LoVo cells assessed as necrotic cells at 3 uM incubated for 24 hrs by Annexin-V-FITC-PI staining based flow cytometric analysis (reference value: 0.97 %); assay type: functional
# [6] = tested on: LoVo; test: Induction of apoptosis in human LoVo cells assessed as viable cells at 3 uM incubated for 24 hrs by Annexin-V-FITC-PI staining based flow cytometric analysis (reference value: 72.1 %); assay type: functional; conditions: read-out: Activity
# [7] = tested on: LoVo; test: Induction of apoptosis in human LoVo cells assessed as early apoptotic cells at 3 uM incubated for 24 hrs by Annexin-V-FITC-PI staining based flow cytometric analysis (reference value: 13.7 %); assay type: functional
# [8] = tested on: NCI-H1703; test: Antitumor activity against human NCI-H1703 cells xenografted in female Balb/c nude mouse assessed as tumor growth inhibition at 50 mg/kg QD, po measured every 3 days for 28 days by vernier caliper based analysis relative to control; assay type: functional; conditions: NCI-H1703, 672 h, time 28 day, read-out: TGI
# [9] = target: Serine/threonine-protein kinase ATR (Homo sapiens, UniProt Q13535); test: Inhibition of ATR (unknown origin) assessed as reduction in p53 phosphorylation level incubated for 30 mins by TR-FRET assay
# [10] = tested on: A2780; test: Antiproliferative activity against human A2780 cells assessed as reduction in cell viability incubated for 120 hrs by Cell-titer Glo luminescent assay; assay type: functional, cell-based
# [11] = species on record: Homo sapiens; test: Inhibition of DNA-PK (unknown origin) at 10 uM preincubated for 15 mins and measured after 60 mins by Z-LYTE screening relative to control; conditions: time 75.0 min
# [12] = tested on: U2OS; test: Antiproliferative activity against human U2OS cells assessed as reduction in cell viability incubated for 120 hrs by Cell-titer Glo luminescent assay; assay type: functional, cell-based
# [13] = target: Kappa-type opioid receptor (Homo sapiens) (UniProt P41145); test: Inhibition of human kappa opioid at 10 uM; conditions: time 75.0 min
# [14] = tested on: HCT-116; test: Antiproliferative activity against human HCT-116 cells assessed as reduction in cell viability incubated for 120 hrs by Cell-titer Glo luminescent assay; assay type: functional, cell-based
# [15] = tested on: LoVo; test: Inhibition of DNA damage repair in human LoVo cells assessed as upregulation of p-Histone H2A.X protein level at 0.3 to 1 uM incubated for 24 hrs by Western blot analysis; assay type: functional, cell-based; conditions: dose 0.3-1 µM
# [16] = tested on: Huh-7; test: Antiproliferative activity against human Huh-7 cells assessed as reduction in cell viability incubated for 120 hrs by Cell-titer Glo luminescent assay; assay type: functional, cell-based
# [17] = tested on: MDA-MB-436; test: Antiproliferative activity against human MDA-MB-436 cells assessed as reduction in cell viability incubated for 120 hrs by Cell-titer Glo luminescent assay; assay type: functional, cell-based
# [18] = tested on: CWR22R; test: Antitumor activity against human 22Rv1 cells xenografted in male Balb/c nude mouse assessed as tumor growth inhibition at 10 to 60 mg/kg QD, po measured every 3 days for 18 days; assay type: functional, organism-based; conditions: dose 10-60 mg/kg, time 18.0 day
# [19] = tested on: HepG2; test: Antiproliferative activity against human HepG2 cells assessed as reduction in cell viability incubated for 120 hrs by Cell-titer Glo luminescent assay; assay type: functional, cell-based
# [20] = tested on: LoVo; test: Inhibition of DNA damage repair in human LoVo cells assessed as decrease in MRE11 expression level incubated for 24 hrs by Western blot analysis; assay type: functional, cell-based; conditions: dose 0.3-1 µM
# [21] = tested on: MDA-MB-231; test: Antiproliferative activity against human MDA-MB-231 cells assessed as reduction in cell viability incubated for 120 hrs by Cell-titer Glo luminescent assay; assay type: functional, cell-based
# [22] = tested on: NCI-H1703; test: Antiproliferative activity against human NCI-H1703 cells assessed as reduction in cell viability incubated for 120 hrs by Cell-titer Glo luminescent assay; assay type: functional, cell-based
# [23] = tested on: LoVo; test: Inhibition of DNA damage repair in human LoVo cells assessed as decrease in RAD51 expression level incubated for 24 hrs by Western blot analysis; assay type: functional, cell-based; conditions: dose 0.3-1 µM
# [24] = tested on: SK-OV-3; test: Antiproliferative activity against human SK-OV-3 cells assessed as reduction in cell viability incubated for 120 hrs by Cell-titer Glo luminescent assay; assay type: functional, cell-based
# [25] = tested on: T-24; test: Antiproliferative activity against human T24 cells assessed as reduction in cell viability incubated for 120 hrs by Cell-titer Glo luminescent assay; assay type: functional, cell-based
# [26] = tested on: MDA-MB-453; test: Antiproliferative activity against human MDA-MB-453 cells assessed as reduction in cell viability incubated for 120 hrs by Cell-titer Glo luminescent assay; assay type: functional, cell-based
# [27] = target: Proto-oncogene tyrosine-protein kinase ROS (Homo sapiens) (UniProt P08922); test: Inhibition of ROS1 (unknown origin) at 10 uM preincubated for 15 mins and measured after 60 mins by Z-LYTE screening relative to control; conditions: time 75.0 min
# [28] = tested on: A549; test: Antiproliferative activity against human A549 cells assessed as reduction in cell viability incubated for 120 hrs by Cell-titer Glo luminescent assay; assay type: functional, cell-based
# [29] = tested on: NCI-H69; test: Antiproliferative activity against human NCI-H69 cells assessed as reduction in cell viability incubated for 120 hrs by Cell-titer Glo luminescent assay; assay type: functional, cell-based
# [30] = tested on: LNCaP; test: Antiproliferative activity against human LNCaP cells assessed as reduction in cell viability incubated for 120 hrs by Cell-titer Glo luminescent assay; assay type: functional, cell-based
# [31] = tested on: OVCAR-8; test: Antiproliferative activity against human OVCAR-8 cells assessed as reduction in cell viability incubated for 120 hrs by Cell-titer Glo luminescent assay; assay type: functional, cell-based
# [32] = target: Serine/threonine-protein kinase mTOR (Homo sapiens, UniProt P42345); test: Inhibition of mTOR (unknown origin) at 10 uM preincubated for 15 mins and measured after 60 mins by Z-LYTE screening relative to control; conditions: time 75.0 min
# [33] = tested on: LoVo; test: Inhibition of DNA damage repair in human LoVo cells assessed as decrease in Chk1 expression level incubated for 24 hrs by Western blot analysis; assay type: functional, cell-based; conditions: dose 0.3-1 µM
# [34] = tested on: KATO III; test: Antiproliferative activity against human KATO III stomach cancer cell line assessed as reduction in cell viability incubated for 120 hrs by Cell-titer Glo luminescent assay; assay type: functional, cell-based
# [35] = tested on: JeKo-1; test: Antiproliferative activity against human JeKo-1 cells assessed as reduction in cell viability incubated for 120 hrs by Cell-titer Glo luminescent assay; assay type: functional, cell-based
# [36] = tested on: MCF7; test: Antiproliferative activity against human MCF7 cells assessed as reduction in cell viability incubated for 120 hrs by Cell-titer Glo luminescent assay; assay type: functional, cell-based
# [37] = tested on: CWR22R; test: Antiproliferative activity against human 22Rv1 cells incubated for 120 hrs by Cell-titer Glo luminescent assay
# [38] = tested on: JeKo-1; test: Antitumor activity against human JeKo-1 cells xenografted in female CB17 SCID mouse at 40 mg/kg BID, po administered as 3 days on and 4 days off schedule for 24 days; assay type: functional, organism-based; conditions: time 24.0 day
# [39] = target: Phosphatidylinositol 4-phosphate 3-kinase C2 domain-containing subunit beta (Homo sapiens) (UniProt O00750); test: Inhibition of PIK3C2B (unknown origin) at 10 uM preincubated for 15 mins and measured after 60 mins by Z-LYTE screening relative to control; conditions: time 75.0 min
# [40] = tested on: LoVo; test: Induction of cell cycle arrest in human LoVo cells assessed as accumulation of cells at G2 phase incubated for 24 hrs by PI staining based flow cytometric analysis; assay type: functional; conditions: dose 1-3 µM
# Sequence of Serine/threonine-protein kinase ATR (Q13535 whole entry): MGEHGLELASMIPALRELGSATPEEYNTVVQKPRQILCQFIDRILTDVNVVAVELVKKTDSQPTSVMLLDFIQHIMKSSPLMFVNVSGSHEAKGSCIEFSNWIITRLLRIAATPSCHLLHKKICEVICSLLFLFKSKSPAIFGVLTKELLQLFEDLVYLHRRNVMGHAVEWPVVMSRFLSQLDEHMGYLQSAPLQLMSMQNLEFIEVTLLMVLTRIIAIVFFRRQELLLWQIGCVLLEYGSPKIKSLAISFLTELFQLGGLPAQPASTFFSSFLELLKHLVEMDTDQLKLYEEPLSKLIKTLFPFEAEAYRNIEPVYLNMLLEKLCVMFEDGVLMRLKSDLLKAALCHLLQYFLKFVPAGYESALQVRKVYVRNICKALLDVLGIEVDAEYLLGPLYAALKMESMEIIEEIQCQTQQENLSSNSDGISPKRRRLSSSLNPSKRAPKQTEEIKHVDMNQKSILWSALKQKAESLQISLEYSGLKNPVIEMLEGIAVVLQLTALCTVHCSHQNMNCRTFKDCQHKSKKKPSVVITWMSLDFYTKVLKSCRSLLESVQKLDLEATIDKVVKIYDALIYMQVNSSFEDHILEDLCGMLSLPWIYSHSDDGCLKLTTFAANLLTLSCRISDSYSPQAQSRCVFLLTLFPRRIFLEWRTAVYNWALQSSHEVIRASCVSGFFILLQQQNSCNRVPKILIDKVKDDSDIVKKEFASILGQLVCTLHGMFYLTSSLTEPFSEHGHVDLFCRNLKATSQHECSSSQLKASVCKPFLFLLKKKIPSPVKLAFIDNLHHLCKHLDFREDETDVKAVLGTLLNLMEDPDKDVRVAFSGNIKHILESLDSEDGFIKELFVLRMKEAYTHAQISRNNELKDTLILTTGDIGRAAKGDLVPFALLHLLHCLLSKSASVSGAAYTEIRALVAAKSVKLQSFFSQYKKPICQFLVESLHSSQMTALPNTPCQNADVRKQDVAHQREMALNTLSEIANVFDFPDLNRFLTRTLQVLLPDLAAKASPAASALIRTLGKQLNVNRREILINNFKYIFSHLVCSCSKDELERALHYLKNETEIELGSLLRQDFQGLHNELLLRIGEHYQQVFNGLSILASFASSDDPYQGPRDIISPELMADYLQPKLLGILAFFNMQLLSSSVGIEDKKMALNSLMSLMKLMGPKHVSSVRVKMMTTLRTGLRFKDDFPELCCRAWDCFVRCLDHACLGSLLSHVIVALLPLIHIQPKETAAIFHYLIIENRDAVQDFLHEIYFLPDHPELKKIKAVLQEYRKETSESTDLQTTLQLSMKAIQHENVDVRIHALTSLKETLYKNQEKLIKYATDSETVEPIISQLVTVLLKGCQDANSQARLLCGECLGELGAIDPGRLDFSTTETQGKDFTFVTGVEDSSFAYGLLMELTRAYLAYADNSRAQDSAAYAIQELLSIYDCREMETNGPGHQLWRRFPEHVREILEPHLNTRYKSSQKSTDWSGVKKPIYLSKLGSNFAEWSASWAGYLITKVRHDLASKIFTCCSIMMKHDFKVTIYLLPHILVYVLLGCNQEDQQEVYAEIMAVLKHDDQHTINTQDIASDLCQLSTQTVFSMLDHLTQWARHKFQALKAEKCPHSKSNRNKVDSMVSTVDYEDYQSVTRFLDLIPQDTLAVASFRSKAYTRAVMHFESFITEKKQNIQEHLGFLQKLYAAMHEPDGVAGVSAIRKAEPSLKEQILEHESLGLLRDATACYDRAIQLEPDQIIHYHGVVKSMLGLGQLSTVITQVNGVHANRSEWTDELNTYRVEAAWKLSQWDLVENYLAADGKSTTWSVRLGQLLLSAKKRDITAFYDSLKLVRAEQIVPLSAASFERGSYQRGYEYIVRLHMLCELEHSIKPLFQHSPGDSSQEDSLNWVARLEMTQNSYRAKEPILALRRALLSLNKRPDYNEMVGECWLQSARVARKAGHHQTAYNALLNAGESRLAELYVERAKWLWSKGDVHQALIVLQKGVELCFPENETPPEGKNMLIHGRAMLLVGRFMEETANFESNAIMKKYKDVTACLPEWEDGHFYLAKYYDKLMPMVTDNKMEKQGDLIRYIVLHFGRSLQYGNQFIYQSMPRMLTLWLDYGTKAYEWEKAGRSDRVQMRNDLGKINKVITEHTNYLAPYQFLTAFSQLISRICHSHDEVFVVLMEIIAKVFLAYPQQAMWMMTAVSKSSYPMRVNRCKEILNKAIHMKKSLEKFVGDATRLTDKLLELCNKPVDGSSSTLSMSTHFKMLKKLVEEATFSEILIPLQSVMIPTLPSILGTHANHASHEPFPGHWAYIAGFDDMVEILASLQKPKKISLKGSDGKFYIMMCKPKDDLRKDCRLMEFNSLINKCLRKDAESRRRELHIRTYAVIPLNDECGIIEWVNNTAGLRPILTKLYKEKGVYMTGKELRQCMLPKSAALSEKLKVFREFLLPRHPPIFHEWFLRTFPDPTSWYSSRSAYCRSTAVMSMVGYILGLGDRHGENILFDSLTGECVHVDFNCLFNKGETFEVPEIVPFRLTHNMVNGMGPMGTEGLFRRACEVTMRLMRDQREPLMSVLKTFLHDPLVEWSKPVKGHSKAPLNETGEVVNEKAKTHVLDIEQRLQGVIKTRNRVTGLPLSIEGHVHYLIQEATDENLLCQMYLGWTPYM
# Sequence of Proto-oncogene tyrosine-protein kinase ROS (Homo sapiens) (P08922 whole entry): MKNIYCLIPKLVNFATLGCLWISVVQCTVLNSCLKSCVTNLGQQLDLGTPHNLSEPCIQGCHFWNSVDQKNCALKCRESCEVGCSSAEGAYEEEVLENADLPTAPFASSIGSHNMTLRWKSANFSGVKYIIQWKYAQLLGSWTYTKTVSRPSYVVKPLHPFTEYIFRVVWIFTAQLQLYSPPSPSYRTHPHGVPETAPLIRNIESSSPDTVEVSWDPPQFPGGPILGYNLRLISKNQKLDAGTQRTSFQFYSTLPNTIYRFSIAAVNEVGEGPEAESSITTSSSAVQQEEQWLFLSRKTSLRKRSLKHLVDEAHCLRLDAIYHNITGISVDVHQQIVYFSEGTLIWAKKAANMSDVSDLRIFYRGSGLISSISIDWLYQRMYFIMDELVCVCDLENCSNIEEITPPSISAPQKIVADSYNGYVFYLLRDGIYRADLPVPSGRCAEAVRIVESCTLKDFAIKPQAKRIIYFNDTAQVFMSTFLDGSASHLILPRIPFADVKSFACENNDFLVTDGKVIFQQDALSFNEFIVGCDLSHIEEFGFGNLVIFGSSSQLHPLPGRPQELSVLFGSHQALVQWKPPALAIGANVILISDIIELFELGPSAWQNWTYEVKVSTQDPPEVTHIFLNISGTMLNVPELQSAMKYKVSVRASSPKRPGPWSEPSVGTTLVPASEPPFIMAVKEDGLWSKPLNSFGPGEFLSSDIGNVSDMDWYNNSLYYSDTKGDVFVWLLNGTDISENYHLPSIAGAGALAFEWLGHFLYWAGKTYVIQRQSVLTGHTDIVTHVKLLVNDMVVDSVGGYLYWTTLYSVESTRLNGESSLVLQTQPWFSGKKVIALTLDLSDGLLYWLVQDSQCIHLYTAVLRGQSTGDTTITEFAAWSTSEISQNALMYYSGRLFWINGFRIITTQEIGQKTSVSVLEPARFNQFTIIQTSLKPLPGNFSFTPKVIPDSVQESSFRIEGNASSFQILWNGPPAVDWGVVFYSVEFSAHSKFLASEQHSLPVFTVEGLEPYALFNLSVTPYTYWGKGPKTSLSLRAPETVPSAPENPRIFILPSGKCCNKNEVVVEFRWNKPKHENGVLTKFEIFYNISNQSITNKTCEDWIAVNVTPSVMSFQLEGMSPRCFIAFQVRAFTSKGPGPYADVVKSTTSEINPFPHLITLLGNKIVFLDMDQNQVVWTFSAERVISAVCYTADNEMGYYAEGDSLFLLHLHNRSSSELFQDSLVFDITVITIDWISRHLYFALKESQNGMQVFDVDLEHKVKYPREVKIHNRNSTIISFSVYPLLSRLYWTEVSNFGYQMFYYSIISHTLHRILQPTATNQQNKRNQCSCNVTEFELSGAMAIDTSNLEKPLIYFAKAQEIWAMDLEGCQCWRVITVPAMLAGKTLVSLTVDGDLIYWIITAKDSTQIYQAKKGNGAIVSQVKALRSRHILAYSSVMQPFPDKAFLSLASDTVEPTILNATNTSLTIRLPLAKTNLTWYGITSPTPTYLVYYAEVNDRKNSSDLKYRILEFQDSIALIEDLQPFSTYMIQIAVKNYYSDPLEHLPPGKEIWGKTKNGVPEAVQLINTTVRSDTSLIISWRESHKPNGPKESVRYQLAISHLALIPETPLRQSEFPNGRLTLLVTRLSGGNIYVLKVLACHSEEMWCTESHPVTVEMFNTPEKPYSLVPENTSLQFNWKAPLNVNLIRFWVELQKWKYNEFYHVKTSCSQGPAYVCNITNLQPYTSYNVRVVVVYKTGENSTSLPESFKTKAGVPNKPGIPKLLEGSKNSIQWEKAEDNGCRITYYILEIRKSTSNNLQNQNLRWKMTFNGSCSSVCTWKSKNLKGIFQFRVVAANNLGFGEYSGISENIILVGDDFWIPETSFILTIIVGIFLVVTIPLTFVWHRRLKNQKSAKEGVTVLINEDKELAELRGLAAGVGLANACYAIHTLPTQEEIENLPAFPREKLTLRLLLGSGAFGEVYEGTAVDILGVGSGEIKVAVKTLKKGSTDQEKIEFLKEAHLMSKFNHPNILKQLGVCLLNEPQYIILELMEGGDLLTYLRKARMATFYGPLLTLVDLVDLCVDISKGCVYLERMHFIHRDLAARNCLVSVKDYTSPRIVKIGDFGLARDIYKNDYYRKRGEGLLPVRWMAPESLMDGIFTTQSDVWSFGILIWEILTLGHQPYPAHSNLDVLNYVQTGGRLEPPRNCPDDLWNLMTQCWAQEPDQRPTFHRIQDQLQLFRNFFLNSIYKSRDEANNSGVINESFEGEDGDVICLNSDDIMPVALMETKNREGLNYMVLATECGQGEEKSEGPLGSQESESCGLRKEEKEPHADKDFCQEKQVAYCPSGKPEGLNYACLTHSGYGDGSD
compound,measurement,setting,value
C[C@@H]1COCCN1c1cc(C2([S@](C)(=N)=O)CC2)nc(-c2cc[nH]c3nccc2-3)n1 [CERALASERTIB],inhibition in vivo at 50 mg/kg,[1],90.6%
same,IC50,[2],920 nM
same,inhibition in vivo at 50 mg/kg,[3],57%
same,Activity,[4],24%
same,Activity,[5],1.93%
same,viability at 3 µM,[6],54.7%
same,Activity,[7],19.3%
same,inhibition in vivo at 50 mg/kg,[8],34%
Cc1n[nH]c(C)c1-c1cc(N2CC3CCC(C2)O3)nc2c(-c3ccn[nH]3)cnn12,IC50,[2],614 nM
Cc1n[nH]c(C)c1-c1cc(N2CC3CCC(C2)O3)n2ncc(-c3ccccc3)c2n1,IC50,[2],> 10000 nM
same,IC50,[9],> 500 nM
Cc1nn(-c2cccnc2)c(C)c1-c1cc(N2CC3CCC(C2)O3)nc2c(-c3ccn[nH]3)cnn12 [listing 1 of 2 here],IC50,[2],216 nM
Cc1n[nH]c(C)c1-c1cc(N2CC3CCC(C2)O3)n2ncc(-c3cn[nH]c3)c2n1,IC50,[2],1720 nM
Cc1nn(-c2cccnc2)c(C)c1-c1cc(N2CC3CCC(C2)O3)nc2c(-c3ccn[nH]3)cnn12 [listing 2 of 2 here],Activity,[10],Active
same,inhibition,[11],> 80%
same,Activity,[12],Active
same,inhibition,[13],Active
same,Activity,[14],Active
same,inhibition,[15],Active
same,Activity,[16],Active
same,Activity,[17],Active
same,TGI,[18],Active
same,Activity,[19],Active
same,inhibition,[20],Dose-dependent-effect
same,Activity,[21],Active
same,Activity,[22],Active
same,inhibition,[23],Dose-dependent-effect
same,Activity,[24],Active
same,Activity,[25],Active
same,Activity,[26],Active
same,inhibition,[27],> 80%
same,Activity,[28],Active
same,Activity,[29],Active
same,Activity,[30],Active
same,Activity,[31],Active
same,inhibition,[32],> 80%
same,inhibition,[33],Dose-dependent-effect
same,Activity,[34],Active
same,Activity,[35],Active
same,Activity,[36],Active
same,Activity,[37],Active
same,Activity,[38],Active
same,inhibition,[39],> 80%
same,Activity,[40],Dose-dependent-effect
COc1cncc(-n2nc(C)c(-c3cc(N4CC5CCC(C4)O5)nc4c(-c5ccn[nH]5)cnn34)c2C)c1,IC50,[2],370 nM
Cc1nn(-c2ccncc2)c(C)c1-c1cc(N2CC3CCC(C2)O3)nc2c(-c3ccn[nH]3)cnn12,IC50,[2],1790 nM
Cc1nn(C2CCCNC2)c(C)c1-c1cc(N2CC3CCC(C2)O3)nc2c(-c3ccn[nH]3)cnn12 (stereo unspecified),IC50,[2],4530 nM
Cc1n[nH]c(C)c1-c1cc(N2CC3CCC(C2)O3)nc2c(-c3ccnn3C)cnn12,IC50,[2],6480 nM
same,IC50,[9],> 500 nM
Cc1n[nH]c(C)c1-c1cc(N2CC3CCC(C2)O3)nc2c(-c3ccccc3)cnn12,IC50,[2],872 nM
Cc1cncc(-n2nc(C)c(-c3cc(N4CC5CCC(C4)O5)nc4c(-c5ccn[nH]5)cnn34)c2C)c1,IC50,[2],234 nM
same,IC50,[9],10 nM
Cc1nn(-c2cncc(Cl)c2)c(C)c1-c1cc(N2CC3CCC(C2)O3)nc2c(-c3ccn[nH]3)cnn12,IC50,[2],675 nM
Cc1nn(-c2cncnc2)c(C)c1-c1cc(N2CC3CCC(C2)O3)nc2c(-c3ccn[nH]3)cnn12,IC50,[2],1400 nM
Cc1n[nH]c(C)c1-c1cc(C23CCC(CNC2)O3)nc2c(-c3cccs3)cnn12 (stereo unspecified),IC50,[2],988 nM
Cc1n[nH]c(C)c1-c1cc(N2CC3CCC(C2)O3)n2ncc(-c3ccnn3C)c2n1,IC50,[2],6730 nM

# — ChEMBL document CHEMBL6103629 (J Med Chem, 2025)
